≈ marks a conversion by molar mass, not a printed value.
Conditions: buffer; pH 7.4; 200.0 µM

SMILES	solubility kinetic
C=CCN1C(=O)C(CC(=O)O)SC1=Nc1cccc([N+](=O)[O-])c1 (configuration not stated)	> 50.3 µg/mL
COc1cccc(C(=O)N2CCN(C(=O)C3CC3)CC2)c1	40.7 µg/mL (≈ 141 µM)
Cc1cccc(C(=O)OCC(=O)NC(C)C2CC3CCC2C3)c1O (configuration not stated)	4.1 µg/mL (≈ 12.4 µM)
Cc1cccc(CN2CCN(C(=S)Nc3ccccc3)CC2)c1	> 48.8 µg/mL
O=C(Nc1ccccc1F)NC1CCCCCCC1	6.9 µg/mL (≈ 26.1 µM)
Cc1cc(=O)[nH]c2ccc(S(=O)(=O)Nc3ccccc3)cc12	3.4 µg/mL (≈ 10.8 µM)
O=C(CNc1cccc([N+](=O)[O-])c1)NC(=O)NC1CCCCC1	30 µg/mL (≈ 93.6 µM)
OC(CNc1ncnc2sccc12)c1ccccc1 (configuration not stated)	> 40.7 µg/mL
O=C1CSC(c2cccc(O)c2)N1Cc1ccccc1 (configuration not stated)	> 42.8 µg/mL
NC(=O)c1cc(S(=O)(=O)N2CCOCC2)cs1	> 41.4 µg/mL
Cc1ccc(NC(=O)NCc2cccnc2)cc1C	38.2 µg/mL (≈ 150 µM)
CC(Oc1ccccc1)C(=O)OCC(=O)NC(=O)NC1CCCCC1 (configuration not stated)	47.7 µg/mL (≈ 137 µM)
COc1ccc(C)cc1NC(=O)C1CCN(C(=O)c2ccco2)CC1	> 51.4 µg/mL
COc1cccc(NC(=S)NC(=O)c2cccnc2)c1	40 µg/mL (≈ 139 µM)
COc1cc(C(=S)N2CCOCC2)cc(OC)c1O	> 42.5 µg/mL
CN(Cc1cccnc1)C(=O)CNC(=O)COc1ccccc1	> 47 µg/mL
COC(=O)c1ccncc1N	> 22.8 µg/mL
COc1ccccc1OCCCCN1CCCCC1	36.1 µg/mL (≈ 137 µM)
Cc1ccc(NC(=O)c2cccc3cccnc23)cc1	6.7 µg/mL (≈ 25.5 µM)
COc1ccccc1C(=O)Nc1ccccc1N1CCCCC1	1 µg/mL (≈ 3.22 µM)
Br.Cc1ccc(C2Cc3cc(O)c(O)cc3CN2)cc1 (configuration not stated)	44.3 µg/mL
Clc1ccc(CN2CCCCCC2)cc1.O=C(O)C(=O)O	24.9 µg/mL
NC(=O)c1ccccc1N	> 20.4 µg/mL
CN(C)CCCOC(=O)c1sc2ccccc2c1Cl.Cl	> 50.1 µg/mL
CC(C)c1nc2sc3c(=O)[nH]cnc3c2c2c1CCCC2	< 0.2 µg/mL

SMILES	solubility kinetic
Cc1ccnc(SCC(=O)Nc2sccc2C#N)n1	13.2 µg/mL (≈ 45.5 µM)
O=C(NC1CC1)C1CCN(C(=O)c2ccc(Cl)cc2)CC1	45.8 µg/mL (≈ 149 µM)
CC(=O)c1ccccc1NC(=O)c1ccc(OCc2c(C)noc2C)cc1	2.6 µg/mL (≈ 7.13 µM)
O=C(NCC1CCCO1)c1ccc(NC(=O)c2ccc(Br)cc2)cc1 (configuration not stated)	1.2 µg/mL (≈ 2.98 µM)
O=C(c1c(F)c(F)c(F)c(F)c1F)N1CCN(Cc2ccc3c(c2)OCO3)CC1	2.3 µg/mL (≈ 5.55 µM)
Cc1ccc2c(c1)N(CC(=O)N1CCOCC1)C(=O)C(C)O2 (configuration not stated)	39.6 µg/mL (≈ 130 µM)
CCCCNC(=O)CCc1nc2cccnc2n1Cc1ccccc1	> 50.5 µg/mL
O=C(COC(=O)c1ccc(S(=O)(=O)N2CCCC2)cc1)NCCc1ccc(F)cc1	6.2 µg/mL (≈ 14.3 µM)
CCC(NC(=S)NCc1ccc(F)cc1)c1ccc(C)cc1 (configuration not stated)	0.8 µg/mL (≈ 2.53 µM)
C/C(=C\c1ccc2c(c1)OCO2)C(=O)c1c(C)cc(C)[nH]c1=O	> 46.7 µg/mL
CCCCN(C(=O)c1ccc2c(c1)OCO2)C1CCS(=O)(=O)C1 (configuration not stated)	> 50.9 µg/mL
CC(=O)NC(CC(=O)N1CCN(C(C)=O)CC1)c1ccccc1 (configuration not stated)	> 47.6 µg/mL
COc1ccc(N=Cc2nc(-c3ccccc3)oc2OC(C)=O)cc1	1.6 µg/mL (≈ 4.76 µM)
COc1ccccc1N1CC=C(c2cccc([N+](=O)[O-])c2)NC1=O	39.8 µg/mL (≈ 122 µM)
COc1cc(C2NC(=S)NC3=C2C(=O)CCC3)ccc1O (configuration not stated)	> 45.7 µg/mL
Cc1nnc(SCC(=O)NC(C)(C)C)n1NCc1cccc(Br)c1	> 61.9 µg/mL
CC1(C)Cc2cccc(OCC(=O)Nc3ccccc3C(F)(F)F)c2O1	7.5 µg/mL (≈ 20.5 µM)
COc1ccc(C2N(c3ccccc3)C(=O)C2(F)F)cc1OC (configuration not stated)	36.2 µg/mL (≈ 113 µM)
N#CCNc1ccc([N+](=O)[O-])cc1C#N	30.3 µg/mL (≈ 150 µM)
O=[N+]([O-])c1ccc2nc(-c3cccnc3)[nH]c2c1	> 36 µg/mL
Cc1cccc(NC(=O)CC(=O)Nc2cccc(C)c2)c1	5.7 µg/mL (≈ 20.2 µM)
CCOC(=O)Cc1c(C)nc(Cc2ccc(OC(C)C)cc2)[nH]c1=O	> 51.7 µg/mL
COC(=O)c1cc(NC(=O)c2cccnc2)cc(C(=O)OC)c1	5.6 µg/mL (≈ 17.8 µM)
CCc1ccc(S(=O)(=O)NCC(O)COc2ccc(OC)cc2)cc1 (configuration not stated)	51.9 µg/mL (≈ 142 µM)
CSc1ccccc1NC(=O)c1cc(-c2ccco2)on1	1.1 µg/mL (≈ 3.66 µM)

SMILES	solubility kinetic
Cc1nc(-c2ccccc2)sc1C(=O)Nc1ccccc1F	1.8 µg/mL (≈ 5.76 µM)
COc1ccccc1-c1cc(C(=O)N2CCCC2)no1	> 40.8 µg/mL
c1ccc2[nH]c(-c3cnco3)cc2c1	21.6 µg/mL (≈ 117 µM)
Cc1nc(-c2cccc(NC(=O)Cc3ccccc3)c2)cs1	30.1 µg/mL (≈ 97.6 µM)
Cc1ccc(OCCNC(=O)c2cc(=O)[nH]c3ccccc23)cc1	2 µg/mL (≈ 6.2 µM)
COc1ccc(C(=O)OCC(=O)c2ccc3[nH]c(=O)[nH]c3c2)c(OC)c1OC	20.3 µg/mL (≈ 52.5 µM)
CCC(Oc1ccccc1F)C(=O)NCCN1CCOCC1 (configuration not stated)	44.3 µg/mL (≈ 143 µM)
CCS(=O)(=O)N1CCN(CC(=O)NC2CCCCC2)CC1.Cl	> 53.1 µg/mL
Cc1ccc(-c2cn(-c3ccccc3F)c(=S)[nH]2)cc1	1.1 µg/mL (≈ 3.87 µM)
COCCn1cnnc1SCC(=O)Nc1cc(C)on1	> 44.6 µg/mL
CSc1ccc(CN(C)C(=O)c2cc3ccccc3o2)cc1	10.3 µg/mL (≈ 33.1 µM)
Cc1cccn2c(NC(=O)c3ccccc3F)c(-c3ccccc3)nc12	2.6 µg/mL (≈ 7.53 µM)
O=C(CN1CCc2ccccc2C1)Nc1ccc(F)cc1	39.2 µg/mL (≈ 138 µM)
CC(C)CCN(C(=O)c1ccccn1)c1c(N)n(Cc2ccccc2)c(=O)[nH]c1=O	56.9 µg/mL (≈ 140 µM)
N#CC1C=Cc2ccccc2N1C(=O)c1ccccc1 (configuration not stated)	10.3 µg/mL (≈ 39.6 µM)
COc1cc(CNCc2ccncc2)cc(OC)c1OC.Cl	> 48.7 µg/mL
CSc1ncc(C(=O)NCCCc2ccccc2)c(C)n1	43 µg/mL (≈ 143 µM)
COc1ccccc1CNC(=O)COC(=O)c1ccc(Cl)nc1	> 50.2 µg/mL
Cc1ccccc1NC(=O)CSc1nc2scc(C)c2c(=O)[nH]1	1.4 µg/mL (≈ 4.05 µM)
CC(C)CC(=O)NC(C)C(c1cccs1)N1CCOCC1 (configuration not stated)	45.4 µg/mL (≈ 146 µM)
O=C(CCCO)NNc1c2ccccc2nc2ccccc12	> 44.3 µg/mL
O=C(Nc1ccncc1)c1ccc(Br)cc1	> 41.6 µg/mL
Cl.c1ccc(CCNCc2cccs2)cc1	32.6 µg/mL
CC(=O)c1cc(CN2CCN(CC=C(C)C)C(CCO)C2)cs1 (configuration not stated)	> 50.5 µg/mL
N#Cc1cc(S(=O)(=O)N2CCOCC2)ccc1N1CCOCC1	> 50.6 µg/mL

SMILES	solubility kinetic
COCCNC(=O)c1cc2cc3ccc(OC)cc3nc2o1	42.1 µg/mL (≈ 140 µM)
Cc1ccc(NC(=S)N2CCCC2)cc1C	> 35.2 µg/mL
Cc1cc(C)cc(NC(=O)CCc2ccc(C)o2)c1	34.6 µg/mL (≈ 134 µM)
COC(=O)c1cc(CSc2nc3ccccc3c(=O)n2C)oc1C	4.4 µg/mL (≈ 12.8 µM)
O=C(CC(Nc1cccc(Cl)c1Cl)C(=O)O)c1ccccc1 (configuration not stated)	43.2 µg/mL (≈ 128 µM)
COc1ccc(NC(=O)c2cc(-c3ccccc3Cl)on2)cc1	< 0.4 µg/mL
CSCCC(NC(=O)c1ccco1)C(=O)NCC1CCCCC1 (configuration not stated)	> 50.8 µg/mL
O=S(=O)(CCN1CCSCC1)c1ccccc1	34.7 µg/mL (≈ 128 µM)
Cc1c(C(=O)C(=O)NCC2CCCO2)c2ccccc2n1C (configuration not stated)	> 45.1 µg/mL
Cc1ccc(N2C(=O)CC(Sc3nc(C)cc(C)n3)C2=O)cc1 (configuration not stated)	34.7 µg/mL (≈ 106 µM)
CCCCN(C(=O)c1cccc(-c2ccc(OC(C)=O)cc2)c1)c1c(N)n(CCC)c(=O)[nH]c1=O	8.5 µg/mL (≈ 17.8 µM)
O=C(O)/C=C/C(=O)Nc1ccc2c(c1)C(=O)c1ccccc1C2=O	> 48.2 µg/mL
O=C1NC(c2ccc(Br)cc2)Nc2ccccc21 (configuration not stated)	9 µg/mL (≈ 29.7 µM)
Cc1cc(C)c2oc(C(=O)N3CCN(C)CC3)cc(=O)c2c1	27.2 µg/mL (≈ 90.6 µM)
Cc1ccc(C)c2c1N(Cc1ccccc1)C(=O)C21OCCO1	< 0.7 µg/mL
COCCCNC(=S)Nc1cccc2ncccc12	40.9 µg/mL (≈ 149 µM)
C=CCn1c(=O)c2ccccc2n2c(SCC(=O)NC(C)C)nnc12	> 53.6 µg/mL
O=C(O)CNS(=O)(=O)c1ccc2[nH]c(=O)c(=O)[nH]c2c1	> 44.9 µg/mL
Nc1ccc2nc(-c3ccccc3)cnc2c1	26.6 µg/mL (≈ 120 µM)
OCCN1CCN(CC#CCC(c2ccccc2)c2ccccc2)CC1	> 52.3 µg/mL
Cc1ccc(F)cc1NS(=O)(=O)c1ccc(Cl)s1	> 45.9 µg/mL
CN(c1ccc(C(=O)N2CCOCC2)cc1)S(=O)(=O)c1cccs1	46.9 µg/mL (≈ 128 µM)
COc1cccc(OCc2ccc(Cl)cc2)c1C#N	< 0.6 µg/mL
COc1ccc(C(=O)CNc2ccc3ccccc3c2)cc1	2.6 µg/mL (≈ 8.92 µM)
CC(c1ccccc1)C1CC(=O)N(c2ccccc2)C1=O (configuration not stated)	41.1 µg/mL (≈ 147 µM)

SMILES	solubility kinetic
Cc1ccccc1OCCNC(=O)c1ccco1	> 36.8 µg/mL
CCOc1ccccc1NC(=O)COC(=O)c1nc2nccc(C)n2n1	> 53.3 µg/mL
O=C(OCCC1Oc2cccnc2NC1=O)c1ccc(F)cc1 (configuration not stated)	4.8 µg/mL (≈ 15.2 µM)
Cc1ccc(SCc2cn3c(C)cc(C)nc3n2)cc1	> 42.5 µg/mL
Cc1ccccc1Nc1c(-c2cccnc2)nc2ccccn12	17.6 µg/mL (≈ 58.6 µM)
Cc1ccc(S(=O)(=O)N(C)C)cc1NC(=O)c1sccc1Cl	2.4 µg/mL (≈ 6.69 µM)
COc1ccccc1CNC(=O)CCCNC(=O)c1ccc(Cl)cc1	20.6 µg/mL (≈ 57.1 µM)
CC(C)Oc1cccc(C(=O)NC2=NCCS2)c1	22 µg/mL (≈ 83.2 µM)
CCOC(=O)N1CCN(C(=O)Cc2ccccc2OC)CC1	> 46 µg/mL
CCOC(=O)Cc1nc(-c2cccc(C(F)(F)F)c2)no1	7.6 µg/mL (≈ 25.3 µM)
COc1ccccc1CC(=O)NCC(c1ccco1)N1CCCCC1 (configuration not stated)	> 51.4 µg/mL
COc1cccc(C(=O)NC2CCCc3ccccc32)c1OC (configuration not stated)	31.6 µg/mL (≈ 101 µM)
CCOC(=O)C(C(=O)N(C)Cc1ccccc1)C1CCCCC1 (configuration not stated)	41.8 µg/mL (≈ 132 µM)
CCNc1nc(NCC)nc(N(C#N)C(C)C)n1	> 37.4 µg/mL
COc1ccccc1Oc1ccccc1[N+](=O)[O-]	25.1 µg/mL (≈ 102 µM)
Cc1ccc(C(=O)Nc2ccncc2)c(Cl)c1	> 37 µg/mL
O=C(OCc1cccc([N+](=O)[O-])c1)c1cccnc1Cl	5.4 µg/mL (≈ 18.5 µM)
O=C(NC1CCCCCC1)c1ccco1	> 31.1 µg/mL
COc1ccc(CNc2ccc([N+](=O)[O-])cn2)cc1	3 µg/mL (≈ 11.6 µM)
CCN(c1ccccc1)S(=O)(=O)c1cc(C(=O)NCC(c2ccco2)N2CCCCC2)ccc1C (configuration not stated)	18.2 µg/mL (≈ 36.7 µM)
CCOc1ccc(S(=O)(=O)NC2CC2)cc1	> 36.2 µg/mL
O=C(NCCc1ccc(C(F)(F)F)cc1)c1ccc(Cl)nc1	6.6 µg/mL (≈ 20.1 µM)
